Measured values taken from patent publication US20150218222A1, “Medicaments” (ARMO BioSciences, Inc., priority 2005, published 2015).
“Also recorded” adds a separate entry of the source. Where no end group is shown, it is not given here.

Key:
Format in all cases: in vivo
rat incisional wounds [1] = assay: Macroscopic wound quality (VAS) of day three rat incisional wounds; details: day 0 and 1, p<0.05 vs naïve wounds, FIG. 1
Experimental: The effects of the peptide on wound healing and scar formation were assessed with reference to the following parameters: • i) The macroscopic quality of the wounds. This was assessed using a rat macroscopic wound assessment protocol as follows. Macroscopic appearance was scored using a Visual Analogue Scale (VAS) consisting of a 10 cm line representing a scale from 0 (denoted by a mark at 0 cm) indicating a “good” wound to 10 (denoted by a mark at 10 cm) indicating a “poor” wound. In assessing the quality of the wound a mark representative of the score conferred was made on the 10 cm line based on the gape and quality of healing of the wound. The best-healed wounds were scored towards the good wound end of the scale (the left hand side of the VAS line) and the poorly healed ones were scored towards the poor wound end of the scale (the right hand side of the VAS line). The marks awarded were measured from the left hand side to provide the final value for the wound assessment in centimetres (to 1 decimal place). • ii) The microscopic width of wounds. The microscopic width of wounds was measured using image analysis of histological sections of wounds. Wounds were analysed using a Leica DM RXA Microscope and a Leica QWin Image Analyser. […] The extent of re-epithelialisation of wounds was measured using image analysis of histological sections of wounds. […]

rat incisional wounds [2] = assay: Microscopic wound width by image analysis of day three rat incisional wounds; details: for wound width at the mid-points of incisional wounds: FIG. 3; for wound width at the top of incisional wounds: FIG. 2
Experimental: (§1) The effects of the peptide on wound healing and scar formation were assessed with reference to the following parameters: • i) The macroscopic quality of the wounds. This was assessed using a rat macroscopic wound assessment protocol as follows. Macroscopic appearance was scored using a Visual Analogue Scale (VAS) consisting of a 10 cm line representing a scale from 0 (denoted by a mark at 0 cm) indicating a “good” wound to 10 (denoted by a mark at 10 cm) indicating a “poor” wound. In assessing the quality of the wound a mark representative of the score conferred was made on the 10 cm line based on the gape and quality of healing of the wound. The best-healed wounds were scored towards the good wound end of the scale (the left hand side of the VAS line) and the poorly healed ones were scored towards the poor wound end of the scale (the right hand side of the VAS line). The marks awarded were measured from the left hand side to provide the final value for the wound assessment in centimetres (to 1 decimal place). • ii) The microscopic width of wounds. The microscopic width of wounds was measured using image analysis of histological sections of wounds. Wounds were analysed using a Leica DM RXA Microscope and a Leica QWin Image Analyser. Linear wound width was measured with a straight line from the left wound margin (where the epidermis begins to thicken) to the right wound margin (where the epidermis begins to thicken). • iii) The re-epithelialisation of wounds. The extent of re-epithelialisation of wounds was measured using image analysis of histological sections of wounds. The percentage re-epithelialisation was calculated by first measuring the non-epithelialised wound diameter. The non-epithelialised wound length was measured with a straight line from the left hand non-epithelialised wound edge to the right hand non-epithelialised wound edge. The non-epithelialised wound edges were identified as the current position of the epithelium in the wound during healing. The re-epithelialisation width was then calculated by subtracting the non re-epithelialised width from the wound width. The percentage re-epithelialisation was then calculated accordingly. • iv) The microscopic quality of the wounds. This was assessed using microscopic Wound Index sheets analysed in accordance with the protocol described below. Evaluation of the microscopic quality of the wounds included an assessment of inflammatory response present in the wounds, as well as assessment of the cellularity of the wounds.
(§2) Rat incisional wounds formed in accordance with well-accepted experimental models (previously described in Shah et al. 1994) were treated with peptide Ala-Tyr-Met-Thr-Met-Lys-Ile-Arg-Asn (Sequence ID No. 2) at concentrations of 50, 125, 250 […] ng/100 μl. Treated and control wounds were harvested at three days post-wounding, and scars derived from treated and control wounds harvested at seventy days post-wounding.
(§3) Four wounds were made on each experimental animal (rat), of which two were treated with the trial concentrations of the peptide. The peptide was administered by intradermal injection on the day of wounding and at one day following wounding.
The experimental animals for wound analysis were killed on the third day post-wounding, and wounds harvested for histology.
Wound widths and percentage re-epithelialisation of incisions were measured by Image Analysis in accordance with the protocols described above. […]

rat incisional wounds [3] = assay: Percentage re-epithelialisation by image analysis of day three rat incisional wounds; details: FIG. 4
Experimental: The effects of the peptide on wound healing and scar formation were assessed with reference to the following parameters: • i) The macroscopic quality of the wounds. This was assessed using a rat macroscopic wound assessment protocol as follows. Macroscopic appearance was scored using a Visual Analogue Scale (VAS) consisting of a 10 cm line representing a scale from 0 (denoted by a mark at 0 cm) indicating a “good” wound to 10 (denoted by a mark at 10 cm) indicating a “poor” wound. In assessing the quality of the wound a mark representative of the score conferred was made on the 10 cm line based on the gape and quality of healing of the wound. The best-healed wounds were scored towards the good wound end of the scale (the left hand side of the VAS line) and the poorly healed ones were scored towards the poor wound end of the scale (the right hand side of the VAS line). The marks awarded were measured from the left hand side to provide the final value for the wound assessment in centimetres (to 1 decimal place). • ii) The microscopic width of wounds. The microscopic width of wounds was measured using image analysis of histological sections of wounds. Wounds were analysed using a Leica DM RXA Microscope and a Leica QWin Image Analyser. Linear wound width was measured with a straight line from the left wound margin (where the epidermis begins to thicken) to the right wound margin (where the epidermis begins to thicken). • iii) The re-epithelialisation of wounds. The extent of re-epithelialisation of wounds was measured using image analysis of histological sections of wounds. The percentage re-epithelialisation was calculated by first measuring the non-epithelialised wound diameter. The non-epithelialised wound length was measured with a straight line from the left hand non-epithelialised wound edge to the right hand non-epithelialised wound edge. […] The re-epithelialisation width was then calculated by subtracting the non re-epithelialised width from the wound width. The percentage re-epithelialisation was then calculated accordingly. • iv) The microscopic quality of the wounds. […]

rat incisional wounds [4] = assay: Microscopic Wound Index (wound width, cellularity, inflammation, epithelial covering) of day three rat incisional wounds; details: for wound index score / wound width score (Wound Index parameter): day three, combined scores of 3 observers; for wound index score: FIG. 5; for wound width score (Wound Index parameter): FIG. 6
Experimental: as §1
Wound index assesses the quality of the wound and gives an assessment based upon the following parameters: wound width (scored out of 10; 1 being a very narrow wound and 10 being a very wide wound); total cellularity of the wound (scored out of 5; 1 being a wound containing a low number of cells and 5 being a wound with a high number of cells); inflammatory cell number (scored out of 5; 1 being a low number of inflammatory cells and 5 being a high number of inflammatory cells); and epithelial covering (scored 0 for complete coverage and 1 for incomplete coverage). The final wound index score is derived by adding the scores for each parameter. A higher wound index value indicates a wound of low quality, whilst a lower wound index value represents a wound of relatively higher quality. • v) The macroscopic quality of scars. This was assessed using a rat macroscopic scar assessment protocol as follows. Macroscopic appearance was scored using a Visual Analogue Scale (VAS) consisting of a 10 cm line representing a scale from 0 corresponding to normal skin to 10 corresponding to a bad scar. A mark was made on the 10 cm line based on an overall assessment of the scar taking into account parameters such as the height, width, contour and colour of the scar. […]

rat incisional wounds [5] = assay: Macroscopic scar quality (VAS) of day seventy scars from rat incisional wounds; details: FIG. 9
Excerpt: Wound index assesses the quality of the wound and gives an assessment based upon the following parameters: wound width (scored out of 10; 1 being a very narrow wound and 10 being a very wide wound); total cellularity of the wound (scored out of 5; 1 being a wound containing a low number of cells and 5 being a wound with a high number of cells); inflammatory cell number (scored out of 5; 1 being a low number of inflammatory cells and 5 being a high number of inflammatory cells); and epithelial covering (scored 0 for complete coverage and 1 for incomplete coverage). The final wound index score is derived by adding the scores for each parameter. A higher wound index value indicates a wound of low quality, whilst a lower wound index value represents a wound of relatively higher quality. • v) The macroscopic quality of scars. This was assessed using a rat macroscopic scar assessment protocol as follows. Macroscopic appearance was scored using a Visual Analogue Scale (VAS) consisting of a 10 cm line representing a scale from 0 corresponding to normal skin to 10 corresponding to a bad scar. A mark was made on the 10 cm line based on an overall assessment of the scar taking into account parameters such as the height, width, contour and colour of the scar. The best scars (typically small width and colour, height and contour like normal skin) were scored towards the normal skin end of the scale (the left hand side of the VAS line) and bad scars (typically large width, raised with uneven contours and whiter colour) were scored towards the bad scar end of the scale (the right hand side of the VAS line). The marks were measured from the left hand side to provide the final value for the scar assessment in centimetres (to 1 decimal place).
as §2, §3
Scars for analysis were harvested from experimental animals killed on the seventieth day post-wounding.
Macroscopic quality of scars was assessed using macroscopic scar assessment sheets scored by two observers in accordance with the protocols described above.
Statistical analysis was carried out using a one-factor analysis of variance (ANOVA) followed by the Mann-Whitney U (MWU) test. […]

[6] = 125 ng/100 μl, p<0.01 vs naïve wounds

In the case of “AYMTMKIRN [peptide of Sequence ID No. 2, peptide based on the C-terminal portion of interleukin 10 (IL-10)]”, the “macroscopic visual analogue (VAS) score, wound quality” value (rat incisional wounds [1]; 125 ng/100 μl intradermal) is reported as “significant improvement in the macroscopic quality”, the “macroscopic visual analogue (VAS) score, wound quality” value (rat incisional wounds [1]; 250 ng/100 μl intradermal) is reported as “significant improvement in the macroscopic quality” and the “wound width at the mid-points of incisional wounds” value (“wound width at the mid-points” below) (rat incisional wounds [2]; 50 ng/100 μl, p<0.05 vs naïve wounds) is reported as “significant decrease in wound width”. For the same sequence, the “wound width at the top of incisional wounds” value (rat incisional wounds [2]; [6]) was “significant decrease in wound width”, the “wound width at the mid-points” value (rat incisional wounds [2]; [6]) was “significant decrease in wound width” and the “wound width at the top of incisional wounds” value (rat incisional wounds [2]; 250 ng/100 μl, p<0.01 vs naïve wounds) was “significant decrease in wound width”. The “wound width at the mid-points” value (rat incisional wounds [2]; 250 ng/100 μl, p<0.01 vs naïve, p<0.05 vs diluent control wounds) was “significant decrease in wound width”, the “percentage of the tops of incisional wounds covered by re-epithelialisation” value (shortened to “percentage”) (rat incisional wounds [3]; 50 ng/100 μl) was “appeared to exhibit an increase in the extent of re-epithelialisation” and the “percentage” value (rat incisional wounds [3]; 125 ng/100 μl) was “appeared to exhibit an increase in the extent of re-epithelialisation”. The “percentage” value (rat incisional wounds [3]; 250 ng/100 μl, p<0.01 vs naïve, p<0.05 vs diluent alone) was “significant increase in the extent of re-epithelialisation”, the wound index score (rat incisional wounds [4]; 50 ng/100 μl) was “lower wound index scores than did control wounds” and the “wound width score (Wound Index parameter)” value (rat incisional wounds [4]; 50 ng/100 μl) was “lower wound width scores than controls”. The wound index score (rat incisional wounds [4]; 125 ng/100 μl) was “lower wound index scores than did control wounds”, the “wound width score (Wound Index parameter)” value (rat incisional wounds [4]; 125 ng/100 μl) was “lower wound width scores than controls” and the wound index score (rat incisional wounds [4]; 250 ng/100 μl) was “lower wound index scores than did control wounds; also recorded: lowest wound index scores”. For the same sequence, the “wound width score (Wound Index parameter)” value (rat incisional wounds [4]; 250 ng/100 μl) was “lower wound width scores than controls”, the “cellularity of treated wounds” value (rat incisional wounds [4]; day three incisional wounds, combined observers, FIG. 7) was “did not reduce cellularity of treated wounds” and the “inflammatory response in treated wounds” value (rat incisional wounds [4]; day three incisional wounds, combined observers, FIG. 8) was “did not reduce cellularity of treated wounds, or cause a reduction of the inflammatory response”. The “macroscopic visual analogue (VAS) score, scar quality” value (rat incisional wounds [5]; 50 ng/100 μl, p<0.05 vs naïve control wounds) was “significantly improved scarring”, the “macroscopic visual analogue (VAS) score, scar quality” value (rat incisional wounds [5]; 125 ng/100 μl, p<0.05 vs naïve control wounds) was “significantly improved scarring” and the “macroscopic visual analogue (VAS) score, scar quality” value (rat incisional wounds [5]; 250 ng/100 μl, p<0.01 vs naïve and diluent control wounds, 2 observers) was “significant improvement in macroscopic quality”. The “macroscopic visual analogue (VAS) score, scar quality” value (rat incisional wounds [5]; 500 ng/100 μl, p<0.05 vs naïve control wounds) was “significantly improved scarring”.
